Laboratory results published in ChEMBL document CHEMBL3714716, “Modulators of the relaxin receptor 1” (2015).
Activity calls are given as the source filed them. The rule behind the calls is not given here.

Assays:
[1] = biological target: T1, Relaxin receptor 1 (Homo sapiens) (UniProt Q9HBX9); experiment: Agonist activity at RXFP1 receptor (unknown origin) expressed in HEK293 cells assessed as stimulation of cAMP production incubated for 30 mins by TR-FRET based HTRF assay relative to forskolin; assay type: functional, cell-based
T1 sequence (whole entry): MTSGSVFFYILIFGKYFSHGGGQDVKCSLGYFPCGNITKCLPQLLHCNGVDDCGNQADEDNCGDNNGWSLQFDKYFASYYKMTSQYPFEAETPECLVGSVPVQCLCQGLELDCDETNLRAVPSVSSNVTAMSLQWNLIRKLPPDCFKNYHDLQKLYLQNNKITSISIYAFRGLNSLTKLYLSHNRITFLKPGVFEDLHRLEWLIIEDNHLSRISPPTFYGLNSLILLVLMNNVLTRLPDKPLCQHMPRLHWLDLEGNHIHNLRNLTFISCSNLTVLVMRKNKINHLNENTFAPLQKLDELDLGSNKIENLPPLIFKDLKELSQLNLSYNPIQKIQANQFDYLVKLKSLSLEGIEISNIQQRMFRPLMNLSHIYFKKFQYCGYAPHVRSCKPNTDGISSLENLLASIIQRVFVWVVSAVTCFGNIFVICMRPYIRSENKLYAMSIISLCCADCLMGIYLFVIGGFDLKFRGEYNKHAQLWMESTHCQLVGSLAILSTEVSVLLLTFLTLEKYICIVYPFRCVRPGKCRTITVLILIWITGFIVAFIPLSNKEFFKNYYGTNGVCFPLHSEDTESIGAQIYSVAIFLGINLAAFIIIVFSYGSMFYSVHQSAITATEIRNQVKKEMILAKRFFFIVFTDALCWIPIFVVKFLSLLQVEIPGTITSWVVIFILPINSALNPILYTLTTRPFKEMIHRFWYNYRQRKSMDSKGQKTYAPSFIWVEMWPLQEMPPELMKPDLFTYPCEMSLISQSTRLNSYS

Relaxin receptor 1 = biological target: T2, Relaxin receptor 1 (Homo sapiens, UniProt Q9HBX9); experiment: Agonist activity at RXFP1 receptor (unknown origin) expressed in HEK293 cells assessed as stimulation of cAMP production incubated for 30 mins by TR-FRET based HTRF assay; assay type: functional, cell-based
T2 sequence (Q9HBX9 whole entry): T1 sequence (whole entry)

| %max [1] | AC50 (Relaxin receptor 1; read-out: AC50) [µM] | AC50 (Relaxin receptor 1; hek293) | SMILES |
| --- | --- | --- | --- |
| 94% | 1.33 |  | COc1ccccc1C(=O)Nc1ccccc1C(=O)Nc1cccc(SC)c1 |
| inactive |  |  | COc1ccccc1C(=O)N(C)c1ccccc1C(=O)Nc1cccc(C(F)(F)F)c1 |
| 84% | 2.11 |  | C/C=C/c1cccc(NC(=O)c2ccccc2NC(=O)c2ccccc2OCC)c1 |
| 90% | 4.71 |  | CCOc1ccccc1C(=O)NCCC(=O)Nc1cccc(S(=O)(=O)C(F)(F)F)c1 |
| 96% | 1.88 |  | O=C(Nc1ccccc1C(=O)Nc1cccc(C(F)(F)F)c1)c1cccc(Cl)c1 |
| 77% | 29.7 |  | COc1ccccc1C(=O)Nc1ccccc1C(=O)N(C)c1cccc(C(F)(F)F)c1 |
| 91% |  |  | C/C=C\c1cccc(NC(=O)c2ccccc2NC(=O)c2ccccc2OCC)c1 |
| 96% | 1.49 |  | O=C(Nc1ccccc1C(=O)Nc1cccc(C(F)(F)F)c1)c1ccc([N+](=O)[O-])cc1 |
| 77% | 5.29 |  | COc1ccccc1C(=O)Nc1ccccc1C(=O)Nc1cccc(N2CCCCC2)c1 |
| 86% | 8.38 |  | O=C(Cc1ccccc1)Nc1ccccc1C(=O)Nc1cccc(C(F)(F)F)c1 |
| 31% | 149 |  | CCOc1ccccc1C(=O)Nc1ccccc1-c1nc2cc(C(F)(F)F)ccc2[nH]1 |
| 95% | 2.65 |  | O=C(Nc1ccccc1C(=O)Nc1cccc(C(F)(F)F)c1)c1ccc(Cl)cc1 |
| 72% |  |  | CCOc1ccccc1C(=O)Nc1ccccc1C(=O)Nc1cncc(I)c1 |
| inactive |  | Not Active | CCOc1ccccc1C(=O)Nc1ccccc1C(=O)Nc1cccc(C(=N)N)c1 |
| 95% | 0.529 |  | CCSc1ccccc1C(=O)Nc1ccccc1C(=O)Nc1cccc(S(=O)(=O)C(F)(F)F)c1 |
| 92% | 3.74 |  | Cc1cccc(C(=O)Nc2ccccc2C(=O)Nc2cccc(C(F)(F)F)c2)c1 |
| 90% | 4.2 |  | Cc1ccccc1C(=O)Nc1ccccc1C(=O)Nc1cccc(C(F)(F)F)c1 |

| %max [1] | AC50 (Relaxin receptor 1; read-out: AC50) [µM] | AC50 (Relaxin receptor 1; hek293) | SMILES |
| --- | --- | --- | --- |
| 84% | 1.06 |  | O=C(Nc1ccccc1C(=O)Nc1cccc(C(F)(F)F)c1)c1cccc([N+](=O)[O-])c1 |
| 77% | 9.4 |  | CS(=O)(=O)c1cccc(C(=O)Nc2ccccc2C(=O)Nc2cccc(C(F)(F)F)c2)c1 |
| inactive |  | Not Active | COc1ccccc1C(=O)Nc1ccccc1C(=O)Nc1cccc(-c2cccs2)c1 |
| 95% | 6.66 |  | COc1ccccc1C(=O)Nc1ccccc1C(=O)Nc1cccc(S(C)(=O)=O)c1 |
| 97% | 0.747 |  | O=C(Nc1cccc(C(F)(F)F)c1)c1ccccc1NC(=O)c1ccccc1Oc1ccccc1 |
| 99% | 0.334 |  | COc1ccccc1C(=O)Nc1ccccc1C(=O)Nc1cccc(C(F)(F)F)c1 |
| 98% | 0.666 |  | CCOc1ccccc1C(=O)Nc1ccccc1C(=O)Nc1cccc(SC(F)(F)F)c1 |
| 59% | 5.29 |  | CCC(CC)C(=O)Nc1ccccc1C(=O)Nc1cccc(C(F)(F)F)c1 |
| 93% | 5.93 |  | O=C(Nc1ccccc1C(=O)Nc1cccc(C(F)(F)F)c1)c1ccc(C(F)(F)F)cc1 |
| 74% | 37.4 |  | COc1cccc(NC(=O)c2ccccc2NC(=O)C2CCCCC2)c1 |
| 37% | 149 |  | CCOc1ccccc1C(=O)Nc1ccccc1C(=O)Nc1cccnc1 |
| 84% | 2.97 |  | O=C(Nc1cccc(I)c1)c1ccccc1NC(=O)C1CCCCC1 |
| inactive |  | Not Active | O=C(Nc1cccc(C(F)(F)F)c1)c1ccccc1NC(=O)c1ccccc1OCCN1CCNCC1 |
| inactive |  |  | COc1ccccc1C(=O)Nc1cccc(C(=O)Nc2cccc(C(F)(F)F)c2)c1 |
| inactive |  |  | CCOc1ccccc1S(=O)(=O)Nc1ccccc1C(=O)Nc1cccc(S(=O)(=O)C(F)(F)F)c1 |
| inactive |  |  | O=C(Nc1cccc(-c2ccccc2)c1)c1ccccc1NC(=O)C1CCCCC1 |

More lines, now with the values behind:

| SMILES | %max [1] | AC50 (Relaxin receptor 1; read-out: AC50) [µM] | AC50 (Relaxin receptor 1; hek293) |
| --- | --- | --- | --- |
| O=C(Nc1cccc(C(F)(F)F)c1)c1ccccc1Nc1cccc(C(F)(F)F)c1 | 93% | 4.2 |  |
| O=C(Nc1ccc(F)cc1)c1ccccc1NC(=O)C1CCCCC1 | 74% | 37.4 |  |
| O=C(Nc1ccc([N+](=O)[O-])cc1)c1ccccc1NC(=O)C1CCCCC1 | 56% | 74.7 |  |
| CCOc1ccccc1-c1nc2ccccc2c(=O)n1-c1cccc(-c2nnn[nH]2)c1 | 36% | 149 |  |
| O=C(Nc1cccc(C(F)(F)F)c1)c1ccccc1OCCN1CCNCC1 | inactive |  | Not Active |
| COc1ccc(NC(=O)c2ccccc2NC(=O)C2CCCCC2)cc1 | inactive |  | Not Active |
| O=C(Nc1cccc(C(F)(F)F)c1)c1ccccc1-c1ccccc1 | inactive |  | Not Active |
| O=C(Nc1cccc(SC(F)(F)F)c1)c1ccccc1NC(=O)C1CCCCC1 | 90% | 1.88 |  |
| Cc1ccc(CNC(=O)c2ccccc2NC(=O)C2CCCCC2)o1 | 31% | 149 |  |
| O=C(Nc1cccc(C(F)(F)F)c1)c1ccccc1NCc1ccccc1 | 69% | 47.1 |  |
| O=C(Nc1cccc(C(F)(F)F)c1)c1ccccc1NC(=O)C12CC3CC(CC(C3)C1)C2 | 87% | 4.71 |  |
| O=C(Nc1cccc(C(F)(F)F)c1)c1ccccc1NC(=O)C1CC1 | 79% | 8.38 |  |
| O=C(Nc1cccc(C(F)(F)F)c1)c1ccccc1OCCN1CCCCC1 | inactive |  | Not Active |
| O=C(NCc1cccc(C(F)(F)F)c1)c1ccccc1NC(=O)C1CCCCC1 | inactive |  |  |
| O=C(Nc1cccc(C(F)(F)F)c1)c1ccccc1-c1ccccc1OCc1ccccc1 | inactive |  | Not Active |
| CC(C)(C)OC(=O)N1CCN(CCOc2ccccc2C(=O)Nc2cccc(C(F)(F)F)c2)CC1 | inactive |  | Not Active |
| CC(C)(C)c1ccc(NC(=O)c2ccccc2NC(=O)C2CCCCC2)cc1 | inactive |  | Not Active |
| O=C(Nc1cccc(C(F)(F)F)c1)c1ccccc1NC(=O)C1CCCC1 | 88% | 2.36 |  |
| O=C(Nc1ccccc1Br)c1ccccc1NC(=O)C1CCCCC1 | inactive |  | Not Active |
| CC1CCC(C(=O)Nc2ccccc2C(=O)Nc2cccc(C(F)(F)F)c2)CC1 (configuration not stated) | 92% | 2.36 |  |
| O=C(Nc1cccc(-c2cccc(C(F)(F)F)c2)c1)c1ccccc1NC(=O)C1CCCCC1 | inactive |  |  |
| O=C(Nc1ccc(Br)cc1)c1ccccc1NC(=O)C1CCCCC1 | 50% | 118 |  |
| O=C(Nc1cccc(F)c1)c1ccccc1NC(=O)C1CCCCC1 | 81% | 13.3 |  |
| O=C(Nc1cccc(Cl)c1)c1ccccc1NC(=O)C1CCCCC1 | 89% | 3.34 |  |
| O=C(Nc1ccc2c(c1)OCO2)c1ccccc1NC(=O)C1CCCCC1 | 58% | 74.7 |  |
| CN(C)CCOc1ccccc1C(=O)Nc1cccc(C(F)(F)F)c1 | inactive |  | Not Active |
| Cc1ccccc1NC(=O)c1ccccc1NC(=O)C1CCCCC1 | inactive |  |  |
| CCOc1ccccc1-c1nc2ccccc2c2nc3ccc(C(F)(F)F)cc3n12 |  | 188 |  |
